# In patent US20080226596A1, “Therapeutic compositions and methods useful in treating hepatitis” (priority 2006, published 2008):
# “Also recorded” adds a separate entry of the source.
# How the values were obtained:
# SHP-1 = molecular target: T1, SHP-1 (Mus musculus, UniProt P29351); test: In vitro PTPase assay, recombinant GST/SHP-1; format: biochemical; conditions: for inhibitory activity against SHP-1: 3-4 μg/ml or 10-100 μg/ml
# T1 construct: made in house
# Method: (§1) In vitro PTPase activities were measured using the commercial protein tyrosine phosphatase assay kit (Upstate Biotechnology, Inc. (“UBI”)) following established procedure known to one of skill in the art. This assay measures the in vitro dephosphorylation of a synthetic phosphotyrosine peptide of the sequence Arg-Arg-Leu-Ile-Glu-Asp-Ala-Gle-Tyr-Ala-Ala-Arg-Gly, wherein the tyrosine is phosphorylated (SEQ ID NO: 3). Briefly, 0.01 µg of GST/PTPase fusion proteins was incubated in 50 μL of Tris buffer (10 mM Tris, pH 7.4) containing different concentrations of inhibitors or chemicals (0-1,000 μg/ml) at 22° C. for 10 minutes, followed by addition of 0.2 mM of the phosphotyrosine peptide and incubation at 22° C. for 18 hours. 100 μL of Malachite Green solution was added and incubated for 5 minutes, and the absorbance at 660 nm was measured after 5 minutes.
# In vitro PTPase assays were used to determine the effects of compounds on recombinant PTPases, following established procedures using a synthetic phosphotyrosine peptide or DiFMUP as the substrate (Pathak et al., J. Imumol. 167, 3391 (2001)). Briefly, individual PTPases (0.1 µg/reaction) in 50 μL of PTPase buffer (50 mM Tris, pH 7.4) were incubated at 22° C. for 10 minutes or as indicated in the absence or presence of inhibitory compounds. Substrates (0.2 mM phosphotyrosine peptide) were then added and allowed to react at 22° C. for 18 hrs. PTPase activity of individual reactions was measured by adding 100 µL of malachite green solution (UBI) and then quantifying the amounts of free phosphate cleaved by the PTPase from the peptide substrate by spectrometry (OD660 nm). PTPase assays using DiFMUP as a substrate were conducted following a previously described procedure (Matter, et al., Biochem. Biophys. Res. Comm. 283, 1061 (2001)). Relative PTPase activities were calculated based on the formula: (PTPase activity in the presence of an inhibitory compound/PTPase activity in the absence of the compound)× 100%. To assess the reversibility of PTPase inhibition, GST fusion proteins of the PTPases bound on glutathione beads (Pharmacia) were pre-incubated with cold Tris buffer (50 mM Tris, pH 7.0) or Tris buffer containing the inhibitor at 4° C. for 30 minutes. The beads were then washed three times in cold Tris buffer or not washed prior to subjecting to in vitro PTPase assays.
# (§2) In vitro PTPase assays were used to determine the effects of levamisole (Sigma), pentamidine (American Pharmaceutical Partners, Inc.), and ketoconazole (Sigma) on recombinant PTPases, following established procedures (Pathak et al., J. Imumol. 167, 3391 (2001); Pathak et al., Leukemia 16, 2285 (2002), Yi et al., J. Immunol. 169, 5978 (2002)) using a synthetic phosphotyrosine peptide or DiFMUP as the substrate as detailed above in section I.A.2.
# MKP1 = molecular target: T2, MKP1 (Homo sapiens, UniProt P28562); test: In vitro PTPase assay, GST/MKP1; format: biochemical
# T2 construct: GST (N); made in house; host or cells: DH5a bacteria
# T2 sequence (P28562 1-367): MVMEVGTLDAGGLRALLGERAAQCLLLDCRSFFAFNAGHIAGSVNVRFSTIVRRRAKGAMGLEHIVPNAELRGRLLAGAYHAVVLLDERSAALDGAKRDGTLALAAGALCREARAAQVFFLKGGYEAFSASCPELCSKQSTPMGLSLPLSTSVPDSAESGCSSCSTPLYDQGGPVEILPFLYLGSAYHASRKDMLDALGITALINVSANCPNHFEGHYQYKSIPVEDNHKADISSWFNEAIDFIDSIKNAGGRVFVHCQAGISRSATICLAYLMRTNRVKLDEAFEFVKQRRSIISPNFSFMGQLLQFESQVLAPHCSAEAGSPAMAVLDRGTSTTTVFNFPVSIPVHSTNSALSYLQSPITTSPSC
# Method: as §1, §2
# T1 sequence (P29351 whole entry): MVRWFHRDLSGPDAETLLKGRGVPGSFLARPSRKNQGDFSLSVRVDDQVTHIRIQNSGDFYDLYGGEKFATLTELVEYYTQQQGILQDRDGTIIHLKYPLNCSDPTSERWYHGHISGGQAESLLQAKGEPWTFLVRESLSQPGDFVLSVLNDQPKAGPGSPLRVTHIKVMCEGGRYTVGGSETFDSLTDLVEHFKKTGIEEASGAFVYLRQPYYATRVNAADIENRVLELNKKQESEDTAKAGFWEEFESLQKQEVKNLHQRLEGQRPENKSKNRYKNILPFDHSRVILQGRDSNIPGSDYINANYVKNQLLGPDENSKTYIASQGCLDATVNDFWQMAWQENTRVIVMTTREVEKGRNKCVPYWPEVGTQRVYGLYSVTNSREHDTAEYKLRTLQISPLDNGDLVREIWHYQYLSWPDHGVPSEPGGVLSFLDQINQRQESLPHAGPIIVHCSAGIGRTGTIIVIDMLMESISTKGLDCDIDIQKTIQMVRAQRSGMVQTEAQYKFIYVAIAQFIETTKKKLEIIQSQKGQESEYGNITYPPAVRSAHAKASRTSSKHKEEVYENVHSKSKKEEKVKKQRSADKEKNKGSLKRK
SMILES,inhibitory activity against SHP-1 (SHP-1),inhibition of MKP1 (MKP1),SHP-1 phosphatase activity (SHP-1; 10 μg/ml),inhibitory activity against MKP1 (MKP1)
N=C(N)c1ccc(OCCCCCOc2ccc(C(=N)N)cc2)cc1 [pentamidine],no obvious inhibitory activity,substantial inhibition,,
CC(=O)N1CCN(c2ccc(OCC3COC(Cn4ccnc4)(c4ccc(Cl)cc4Cl)O3)cc2)CC1 (stereo not shown) [ketoconazole],no obvious inhibitory activity,substantial inhibition,,
O.O.O.O.O.O.O.O.O.O=C([O-])[C@@H]1[O][Sb]2([O-])([O][Sb]34([OH])[O][C@H]([C@H](O)CO)[C@H]([O]3)[C@H](C(=O)[O-])[O]4)[O][C@H]([C@H](O)CO)[C@@H]1[O]2.[Na+].[Na+].[Na+] [sodium stibogluconate],,no obvious effects,almost completely inhibited; also recorded: inactivated SHP-1,no obvious inhibitory activity
